Columns and labels:
Format in all cases: cell-based, human
pre-DC = assay: Luminex Drop Array assay on sorted and stimulated pre-DC, culture supernatants; details: TLR7/8 or TLR9 stimulation; FIG. 2G and FIG. 13
Description: (§1) A total of 2,000 cells/well of sorted pre-DC and DC subsets were seeded in V-bottom 96 well plates and then incubated for 18 h in 50 μL complete RPMI-1640 Glutmax media (Life Technologies) supplemented with 10% FBS and 1% penicillin/streptomycin, and stimulated with either LPS, LPS+IFNγ, Flagellin, polyI:C, Imidazoquinoline or CpG oligodeoxynucleotides (ODN) 2216. Cells were then pelleted and 30 μL supernatant was collected. A Luminex® Drop Array™ was performed using 5 μL of the supernatant. Human G-CSF, GM-CSF, IFN-α2, IL-10, IL-12p40, IL-12p70, IL-15, IL-1RA, IL-1a, IL-1b, IL-6, IL-7, IL-8, MIP-1b, TNF-α, TNF-β were tested by multiplexing (EMD Millipore) with DropArray-bead plates (Curiox) according to the manufacturer's instructions. Acquisition was performed using xPONENT 4.0 (Luminex) acquisition software, and data analysis was performed using Bio-Plex Manager 6.1.1 (Bio-Rad).

pDC [1] = assay: Intracellular cytokine detection following stimulation with TLR ligands (PBMC, flow cytometry), pDC; details: PBMC stimulated 6 h with TLR agonist
Description: All antibodies used for fluorescence-activated cell sorting (FACS) and flow cytometry were mouse anti-human monoclonal antibodies (mAbs), except for chicken anti-human CADM1 IgY primary mAb. Briefly, 5×10^6 cells/tube were washed and incubated with Live/Dead blue dye (Invitrogen) for 30 min at 4° C. in phosphate buffered saline (PBS) and then incubated in 5% heat-inactivated fetal calf serum (FCS) for 15 min at 4° C. (Sigma Aldrich). The appropriate antibodies diluted in PBS with 2% fetal calf serum (FCS) and 2 mM EDTA were added to the cells and incubated for 30 min at 4° C., and then washed and detected with the secondary reagents. For intra-cytoplasmic or intra-nuclear labeling or staining, cells were fixed and permeabilized with BD Cytofix/Cytoperm (BD Biosciences) or with eBioscience FoxP3/Transcription Factor Staining Buffer Set (eBioscience/Affimetrix), respectively according to the manufacturer's instructions. Flow cytometry was performed using a BD LSRII or a BD FACSFortessa (BD Biosciences) and the data analyzed using BD FACSDiva 6.0 (BD Biosciences) or FlowJo v.10 (Tree Star Inc.). For isolation of precursor dendritic cells (pre-DC), PBMC were first depleted of T cells, monocytes and B cells with anti-CD3, anti-CD14 and anti-CD20 microbeads (Miltenyi Biotec) using an AutoMACS Pro Separator (Miltenyi Biotec) according to the manufacturer's instructions. […]

pDC [2] = assay: Luminex Drop Array assay on sorted and stimulated pDC, culture supernatants; details: TLR7/8 or TLR9 stimulation; FIG. 2G and FIG. 13
Description: as §1

## CCOCc1nc2c([nH]1)c(N)nc1ccccc12 [CL097]
pre-DC
  IL-12p40 secretion by pre-DC: readily secreted
pDC [1]
  IFN-α production by pDC: robust
pDC [2]
  IFNα secretion by pure pDC cultures: abundant secretion
  IL-12p40 secretion by pure pDC cultures: but not IL-12p40

Reference: patent US20210100897A1, “METHODS FOR THE STIMULATION OF DENDRITIC CELL (DC) PRECURSOR POPULATION "PRE-DC" AND THEIR USES THEREOF” (AGENCY FOR SCIENCE, TECHNOLOGY AND RESEARCH, priority 2017, published 2021)
